Usually IC50 stands for the point on the concentration scale where inhibition reaches its midpoint. One may read the Ki as the dissociation constant of the complex between target and ligand, obtained from inhibition or displacement. Usually Km stands for the substrate concentration at which the rate is half of its maximum.

Series [1] has as its target T1, human recombinant 5-LOX (Homo sapiens, UniProt P09917).
T1 sequence (P09917 1-674): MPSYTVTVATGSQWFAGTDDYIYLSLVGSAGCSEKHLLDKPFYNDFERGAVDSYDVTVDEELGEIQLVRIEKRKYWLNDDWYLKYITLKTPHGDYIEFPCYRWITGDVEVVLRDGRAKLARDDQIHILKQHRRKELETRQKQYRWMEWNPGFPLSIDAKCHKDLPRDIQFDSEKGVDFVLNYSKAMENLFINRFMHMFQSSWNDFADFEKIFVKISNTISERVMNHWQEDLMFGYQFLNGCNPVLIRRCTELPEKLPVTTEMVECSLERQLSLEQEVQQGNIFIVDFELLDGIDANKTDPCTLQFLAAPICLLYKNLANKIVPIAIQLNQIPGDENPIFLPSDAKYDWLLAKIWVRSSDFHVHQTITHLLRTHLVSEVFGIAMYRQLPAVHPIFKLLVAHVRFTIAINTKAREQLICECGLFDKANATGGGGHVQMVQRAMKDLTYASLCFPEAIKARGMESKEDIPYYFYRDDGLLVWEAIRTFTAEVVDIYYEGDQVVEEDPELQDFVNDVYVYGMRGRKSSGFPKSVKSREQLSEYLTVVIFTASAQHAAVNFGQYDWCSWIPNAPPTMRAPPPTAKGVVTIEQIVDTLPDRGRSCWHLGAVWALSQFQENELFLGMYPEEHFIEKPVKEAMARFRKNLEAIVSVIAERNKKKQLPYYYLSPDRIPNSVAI
Kind of series: 5-LOX activity, ferrous oxidation-xylenol orange. The format is biochemical.

In series [2] the test system is COX-2-mediated PGE2 in A549 cells. Kind of series: COX-2 activity in intact-cell assay, IL-1β-stimulated A549 cells. The format is cell-based, human. To be noted: read-out: IC50 for inhibition of COX-2-mediated PGE2; IL-1β-stimulated A549 epithelial cells; 5 μM AA.
Series [3] relates to 5-LOX translocation in differentiated HL-60 cells. Kind of series: 5-LOX translocation from cytosol to nucleus by western blotting. The format is cell-based, human. The following applies: 20 μM, 30 min preincubation. Background: Immunoblotting shows a protein as a band on a membrane.
Series [4] has as its target T1, human recombinant 5-LOX. Kind of series: 5-LOX enzyme kinetics. The format is biochemical. To be noted: for Nature of inhibition of 5-LOX: Lineweaver-Burk double reciprocal plot.
The target of a further series is human recombinant COX-1 (Homo sapiens, UniProt P23219). In words: COX-1 activity assay using purified enzyme. In kind it is biochemical.
Sequence of human recombinant COX-1 (P23219 24-599): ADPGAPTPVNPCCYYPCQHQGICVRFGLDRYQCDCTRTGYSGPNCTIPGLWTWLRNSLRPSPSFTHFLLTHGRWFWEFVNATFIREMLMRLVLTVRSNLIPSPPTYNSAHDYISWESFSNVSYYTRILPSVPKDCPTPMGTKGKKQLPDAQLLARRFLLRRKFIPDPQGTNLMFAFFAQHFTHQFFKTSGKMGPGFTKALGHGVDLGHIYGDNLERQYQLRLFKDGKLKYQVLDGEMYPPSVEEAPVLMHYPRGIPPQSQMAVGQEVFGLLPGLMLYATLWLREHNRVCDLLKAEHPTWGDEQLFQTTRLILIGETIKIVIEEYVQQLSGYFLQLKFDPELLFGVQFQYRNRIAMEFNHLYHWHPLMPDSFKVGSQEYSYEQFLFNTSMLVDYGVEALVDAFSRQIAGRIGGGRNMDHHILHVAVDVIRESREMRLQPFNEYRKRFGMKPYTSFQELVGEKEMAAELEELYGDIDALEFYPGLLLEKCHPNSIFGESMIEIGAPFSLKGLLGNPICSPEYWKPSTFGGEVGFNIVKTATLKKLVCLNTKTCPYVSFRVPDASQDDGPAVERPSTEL
For series [5], the system named is 5-LOX translocation in differentiated HL-60 cells. To be noted: cited from earlier work.
The test system of series [6] is LTB4 formation in differentiated HL-60 cells. In words: LTB4 formation in stimulated neutrophil-like differentiated HL-60 cells. The format is cell-based, human. To be noted: for Effect on THAP-stimulated LTB4 (in words): at up to 50 μM, not shown.
Another series deals with 5-LOX. The following applies: read-out: IC50 for inhibition of 5-LOX; ref 10 (Pein et al); cited from earlier work.
The next series relates to LTB4 in cells. To be noted: read-out: IC50 for inhibition of LTB4 in cells; ref 10 (Pein et al); cited from earlier work.
Substrate in the series “5-LOX enzyme kinetics”: CCCCC/C=C\C/C=C\C/C=C\C/C=C\CCCC(=O)O
In words: 5-LOX enzyme kinetics. The format is biochemical, human. The following applies: other: substrate AA 5–50 μM; oxygen consumption; pH 7.4.

Some results are limits rather than exact numbers.

With `Cc1c(O)cc2c(c1C)OC(C)(CCC(=O)O)CC2` (stereo not drawn) [γ-CEHC, 2-(β-carboxyethyl)-6-hydroxychroman], the IC50 on human recombinant 5-LOX [1] is over 50000 nM.

Take `Cc1cc(O)cc2c1OC(C)(CCCC(C)CCCC(C)CCCC(C)C(=O)O)CC2` (centres unmarked) [δT-13’-COOH, δT-13’-carboxychromanol]: the IC50 in series [2] was in the range of 2500 to 5000 nM. In series [3], the “Impact on THAP-induced 5-LOX translocation (in words)” value (shortened to “Impact”) was “did not show any significant impact”. In addition, the “Nature of inhibition of 5-LOX” value on human recombinant 5-LOX [4] was “competitive inhibitor”.

Take `CC(C)=CCC/C(C)=C/CC/C(C)=C/CC[C@]1(C)CCc2cc(O)c(C)c(C)c2O1` [γTE, γ-tocotrienol]: the half-maximal inhibitory concentration (IC50) was 1000 to 2500 nM at human recombinant COX-1 and 4300 nM on human recombinant 5-LOX [1]. Moreover, the “Impact” value in series [3] is “did not show any significant impact”. In addition, the “Effect on A23187-stimulated 5-LOX translocation (in words)” value in series [5] is given as “modestly blocked”.

For `Cc1cc(O)cc2c1O[C@](C)(CCC[C@H](C)CCC[C@H](C)CCCC(C)C)CC2` [δT, δ-tocopherol], the “Effect on THAP-stimulated LTB4 (in words)” value in series [6] was “no significant effect”.

Take `C/C(=C\CC/C(C)=C/CC[C@]1(C)CCc2cc(O)cc(C)c2O1)CC/C=C(\C)C(=O)O` [δTE-13’-COOH, δTE-13’-carboxychromanol]: the IC50 was 2500 to 5000 nM in [2], […] with 5-LOX and about 260 nM in the series on LTB4 in cells. The “Impact” value in [3] was “did not show any significant impact”.

As for `Cc1c(O)cc2c(c1C)O[C@](C)(CCC[C@H](C)CCC[C@H](C)CCCC(C)C)CC2` [γT, γ-tocopherol], the IC50 at human recombinant COX-1 lay within 1000 to 2500 nM. In addition, the “Effect on THAP-stimulated LTB4 (in words)” value in series [6] was “no significant effect”.

As to `CC(C)=CCC/C(C)=C/CC/C(C)=C/CC[C@]1(C)CCc2cc(O)cc(C)c2O1` [δTE, δ-tocotrienol], the IC50 at human recombinant COX-1 was 1000 to 2500 nM. Further, the IC50 at human recombinant 5-LOX [1] was found to be 4300 nM. Besides, the “Effect on A23187-stimulated LTB4 (in words)” value in series [6] (neutrophil-like HL-60 cells, data not shown) is given as “inhibited”. The “Impact” value in [3] is “did not show any significant impact”. At human recombinant 5-LOX [4], the Ki is 2200 nM and the “Nature of inhibition of 5-LOX” value is on record as “competitive inhibitor”.

As to `Cc1c(C)c2c(c(C)c1O)CC[C@@](C)(CCC[C@H](C)CCC[C@H](C)CCCC(C)C)O2` [αT, α-tocopherol], the IC50 at human recombinant COX-1 is about 12000 nM.

B1: human recombinant 5-LOX (Homo sapiens) (protein)
chain: MPSYTVTVATGSQWFAGTDDYIYLSLVGSAGCSEKHLLDKPFYNDFERGAVDSYDVTVDEELGEIQLVRIEKRKYWLNDDWYLKYITLKTPHGDYIEFPCYRWITGDVEVVLRDGRAKLARDDQIHILKQHRRKELETRQKQYRWMEWNPGFPLSIDAKCHKDLPRDIQFDSEKGVDFVLNYSKAMENLFINRFMHMFQSSWNDFADFEKIFVKISNTISERVMNHWQEDLMFGYQFLNGCNPVLIRRCTELPEKLPVTTEMVECSLERQLSLEQEVQQGNIFIVDFELLDGIDANKTDPCTLQFLAAPICLLYKNLANKIVPIAIQLNQIPGDENPIFLPSDAKYDWLLAKIWVRSSDFHVHQTITHLLRTHLVSEVFGIAMYRQLPAVHPIFKLLVAHVRFTIAINTKAREQLICECGLFDKANATGGGGHVQMVQRAMKDLTYASLCFPEAIKARGMESKEDIPYYFYRDDGLLVWEAIRTFTAEVVDIYYEGDQVVEEDPELQDFVNDVYVYGMRGRKSSGFPKSVKSREQLSEYLTVVIFTASAQHAAVNFGQYDWCSWIPNAPPTMRAPPPTAKGVVTIEQIVDTLPDRGRSCWHLGAVWALSQFQENELFLGMYPEEHFIEKPVKEAMARFRKNLEAIVSVIAERNKKKQLPYYYLSPDRIPNSVAI
With B1, the Km in “5-LOX enzyme kinetics” amounted to 2.1 µM.

The values are drawn from publication PMC9018117 (The Journal of nutritional biochemistry, 2021).
